Blank lines part the entries; values can stand above or below the compound they belong to.
Key:
[1] = target: T1, human serum albumin (HSA) (Homo sapiens, UniProt P02768); experiment: Effect of paracetamol on HSA–ceftazidime binding (fluorescence quenching, Lineweaver–Burk analysis); settings: for KSV: 25 °C
Experimental: (§1) UV-visible studies were performed on a Perkin Elmer Lambda 45 spectrophotometer (Germany) within the range of 200 nm to 500 nm as required. Intrinsic fluorescence measurements were performed on a Hitachi F 7000 spectrofluorometer (Japan) equipped with the programmable temperature controller. The excitation and emission slit widths were adjusted to 5 nm with a PMT voltage of 500 V. Circular dichroism (CD) spectrophotometric recordings were obtained with a Jasco J-815 spectropolarimeter (Japan) using a quartz cuvette of […]. The studies were carried out in the 20 mM tris buffer of pH 7.4 and at 25 °C unless stated otherwise. Autodock 4.2 [36] was used to perform molecular docking and MD simulations were performed through GROMACS 2021.3 [37] with the utilization of the CHARMM force field for a production run of 100 ns. The detailed methodology is given in the Supplementary Materials.

[2] = target: T1, human serum albumin (HSA); experiment: Intrinsic fluorescence quenching of HSA by ceftazidime (Stern–Volmer, modified Stern–Volmer, Van't Hoff analysis); type: binding; settings: for KSV (Stern–Volmer quenching constant): 20 mM tris buffer pH 7.4, excitation 295 nm; for ΔG (free energy change of binding): Van't Hoff
Text: The intrinsic fluorescence of HSA is mainly contributed by a single tryptophan residue, which can be excited at 295 nm to give the maximum fluorescence emission at 340 nm. […] The corrected fluorescence data are used to further analyze the results given in the next section.
The fluorescence quenching is the result of either stable complex formation between fluorophore and the quencher or there is a collisional encounter between them. The first phenomenon is termed as static quenching, while the second one is known as dynamic quenching. […] The involvement of the quenching mechanism, either static or dynamic, can be understood with the help of temperature variation. Dynamic quenching increases in increasing the temperature while static quenching constant decreases in such a case.
The binding constant (Kb) and number of binding sites (n) can also be estimated using the modified Stern–Volmer equation as:(2) logF0−F/F=logKb+nlog[Q].
Van’t Hoff equations (given in Equations (S2) and (S3)) can be used to evaluate the thermodynamic parameters such as the free energy change (ΔG), enthalpy change (ΔH), and entropy change (ΔS) of a process using the values of physical parameters at equilibrium. Herein, we used the binding constant, Kb, at three different temperatures to fit into the Equation (S1) to obtain the values of ΔH from the slope and ΔS from the intercept of the plot of ln Kb vs. 1/T (Figure 5A), which are given in Table 1. The values of ΔH and ΔS were, further, used to calculate ΔG. From the evaluation of thermodynamic parameters, involvement of the major forces in the binding can be understood along with the feasibility of the interaction. According a to report published by Ross and Subramanian, hydrogen bonding interactions dominate when the values of ΔH and ΔS are negative, whereas positive values of these parameters can be observed in case of hydrophobic interactions.
as §1, with “Materials. […]” for “Materials.”

[3] = target: T1, human serum albumin (HSA); experiment: Competitive binding site assay with site markers warfarin, ibuprofen and hemin (fluorescence quenching); settings: for KSV: 25 °C
Text: DS1 is located in subdomain IIA, while DS2 is located in subdomain IIIA. There are several molecules that have the specific affinities towards these binding sites; for instance, warfarin binds strongly at DS1 and ibuprofen binds at DS2 [12]. There is another binding site within HSA, which is also known as fatty acid binding site 1, located in subdomain IB, which has a precise affinity for hemin [12]. Therefore, these molecules could be considered as the specific site markers for these sites and can be used to see the competitive binding between the molecule under consideration. […] The corresponding quenching and binding plots are given in Figure 7A,B and the calculated values of quenching and binding constants are shown in Table 2. […] To obtain more understanding on the binding site, we performed computational studies using molecular docking and molecular dynamics simulations, which will be described in the next sub-sections.
as §1

HSA = HSA (Homo sapiens, UniProt P02768); experiment: Far-UV circular dichroism spectroscopy of HSA with ceftazidime; settings: far-UV CD, dependent on drug concentration
Experimental: as §1
Non-steroidal anti-inflammatory drug effect on the binding of p lasma […]
on Perkin-Elmer Lambda 45 Spectrophotometer equipped with autosampler and water-
bath with temperature controller. Quartz cuvettes of 1 cm path length were used for the
Fluorescence measurements were performed on Hitachi spectrofluorometer (Model […]
fluorescence spectra were collected at 25 °C with a cell of path length 1 cm. […]
and emission slits were set at 5 nm. Intrinsic fluorescence was measured by exciting […]

[4] = Van't Hoff plot of ln Kb vs. 1/T, 25–45 °C

T1 sequence (P02768 25-609): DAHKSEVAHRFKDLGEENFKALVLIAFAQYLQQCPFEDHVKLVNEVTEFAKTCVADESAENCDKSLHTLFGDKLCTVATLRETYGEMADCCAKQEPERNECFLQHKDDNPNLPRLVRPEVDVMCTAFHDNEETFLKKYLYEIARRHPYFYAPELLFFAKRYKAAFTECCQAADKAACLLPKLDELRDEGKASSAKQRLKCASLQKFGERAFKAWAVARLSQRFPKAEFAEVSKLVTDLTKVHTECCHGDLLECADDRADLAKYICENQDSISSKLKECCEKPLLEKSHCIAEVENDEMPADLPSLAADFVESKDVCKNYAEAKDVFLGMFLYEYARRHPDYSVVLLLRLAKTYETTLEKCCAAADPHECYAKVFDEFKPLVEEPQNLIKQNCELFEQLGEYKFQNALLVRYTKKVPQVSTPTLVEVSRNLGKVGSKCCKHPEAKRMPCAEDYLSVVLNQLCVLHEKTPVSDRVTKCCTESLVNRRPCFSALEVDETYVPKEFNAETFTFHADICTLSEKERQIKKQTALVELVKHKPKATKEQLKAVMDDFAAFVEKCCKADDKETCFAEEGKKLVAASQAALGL
HSA, sequence (P02768 25-609): as above

type of inhibition of HSA–ceftazidime binding ([1]; Lineweaver–Burk plots): non-competitive
SMILES: CC(=O)Nc1ccc(O)cc1 [Paracetamol, paracetamol]

n (number of binding sites) ([2]; 25 °C): 0.96
KSV (Stern–Volmer quenching constant) ([2]; 25 °C): 2.3 × 10^3 M^–1
ΔG (free energy change of binding) ([2]; 25 °C): -4.4 kcal/mol
n (number of binding sites) ([2]; 35 °C): 1.01
KSV (Stern–Volmer quenching constant) ([2]; 35 °C): 2.6 × 10^3 M^–1
ΔG (free energy change of binding) ([2]; 35 °C): -4.95 kcal/mol
n (number of binding sites) ([2]; 45 °C): 1.09
KSV (Stern–Volmer quenching constant) ([2]; 45 °C): 3.2 × 10^3 M^–1
ΔG (free energy change of binding) ([2]; 45 °C): -5.5 kcal/mol
quenching mechanism ([2]; KSV increased on increasing the temperature): dynamic quenching mechanism
ΔH (enthalpy change of binding) [2, 4]: 11.8 kcal/mol
ΔS (entropy change of binding) [2, 4]: 227.8 J mol^−1 K^−1
KSV ([3]; in the presence of hemin (site marker subdomain IB)): 1.3 × 10^3 M^–1
KSV ([3]; in the presence of ibuprofen (site marker DS2)): 2.3 × 10^3 M^–1
KSV ([3]; in the presence of warfarin (site marker DS1)): 1.7 × 10^3 M^–1
preferred binding site within HSA ([3]; site markers and docking): subdomain IB
KSV ([1]; in the presence of 50 µM paracetamol): 2.2 × 10^3 M^–1
KSV ([1]; in the presence of 100 µM paracetamol): 1.8 × 10^3 M^–1
KSV ([1]; in the presence of 150 µM paracetamol): 1.7 × 10^3 M^–1
KSV ([1]; in the presence of 250 µM paracetamol): 1.6 × 10^3 M^–1
KSV ([1]; in the presence of 500 µM paracetamol): 1.3 × 10^3 M^–1
effect on secondary structure of HSA (HSA): partial unfolding of the protein
SMILES: CC(C)(O/N=C(\C(=O)N[C@@H]1C(=O)N2C(C(=O)[O-])=C(C[n+]3ccccc3)CS[C@H]12)c1csc(N)n1)C(=O)O [Ceftazidime]
